Experimental data published in patent US5684162A, “Leukotriene B4 antagonists” (G.D. Searle & Co., priority 1996, dated 1997).

How the values were obtained:
[1] = molecular target: T1, LTB4 Receptor (Homo sapiens, UniProt Q15722); test: LTB4 Receptor Binding Assay ([3H]LTB4, human neutrophils); details: 0.6×10^-9 M (3H) LTB4, human neutrophils, 0° C., 45 minutes, pH 7.4
T1 construct: Neutrophils were purified from venous blood of normal human donors; endogenous in cells; host or cells: human peripheral blood neutrophils (>95% pure, normal donors)
T1 sequence (Q15722 whole entry): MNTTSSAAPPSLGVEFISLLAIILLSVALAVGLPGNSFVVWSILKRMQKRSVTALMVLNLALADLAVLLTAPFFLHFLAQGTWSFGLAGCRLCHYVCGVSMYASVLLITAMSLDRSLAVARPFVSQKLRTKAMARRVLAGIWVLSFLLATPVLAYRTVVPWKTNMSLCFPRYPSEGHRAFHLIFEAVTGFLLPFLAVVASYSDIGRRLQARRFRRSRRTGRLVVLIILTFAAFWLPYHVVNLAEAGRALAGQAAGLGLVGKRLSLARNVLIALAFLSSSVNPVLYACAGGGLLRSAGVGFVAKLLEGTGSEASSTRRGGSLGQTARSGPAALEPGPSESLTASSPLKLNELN
Protocol: Preparation of Human Neutrophils
Neutrophils were purified from venous blood of normal human donors using standard techniques of dextran sedimentation, centrifugation on Ficoll-paque® (Pharmacia) or Histopaque® sterile solution (Sigma) and hypotonic lysis of erythrocytes (Boyum, A., Isolation of Leukocytes From Human Blood: Further Observations. Scand. J. Lab. Clin. Invest., 21 (Suppl. 97): 31, 1968).
LTB4 Receptor Binding Assay
Neutrophils (4-6×10^6) in 1 ml Hanks' balanced salt solution (HBSS) containing 10 mM HEPES buffer , pH 7.4 and […] nordihydroguaiaretic acid were incubated with 0.6×10^-9 M (^3 H) LTB4 in the presence or absence of test compounds. The incubation was carried out at 0° C. for 45 minutes and terminated by adding 5 ml of ice-cold HBSS followed by rapid filtration of the incubation mixture under vacuum through GF/C glass fiber filters. The filters were further washed with 10 ml HBSS and radioactivity was determined. Specific binding was defined as the difference between total binding and nonspecific binding which was not displaced by 10^-7 M unlabeled LTB4. All data refer to specific binding.

[2] = tested on: Human neutrophils; test: Modified Boyden Chamber Chemotaxis (LTB4-induced, human neutrophils); format: cell-based; details: Neutrophil; 3×10^-8 M LTB4, human neutrophils, 40-90 minute incubation at 37° C., pH 7.3
Protocol: Modified Boyden Chamber Chemotaxis
Human neutrophils were isolated from citrated peripheral blood using standard techniques of dextran sedimentation, followed by centrifugation on Histopaque® sterile solution (Sigma) or Ficoll-paque® (Pharmacia) and hypotonic lysis of erythrocytes. A final cell suspension of 3.4×10^6 neutrophils/ml of HEPES-buffered Hanks' balanced salt solution (HBSS, pH 7.3) was added to the upper well (0.8 ml) of a modified Boyden chamber (blind well). The lower well (0.2 ml), separated by a polycarbonate membrane (Nucleopore Corp.), contained HBSS or 3×10^-8 M LTB4 in the presence or absence of test compound. Following a 40-90 minute incubation at 37° C. in 5% CO2 -95% air, cells from the lower well were lysed and nuclei counted in a Model S-Plus-IV Coulter Counter. The number of neutrophils migrating into the lower chamber in the absence of chemoattractant was subtracted from the number of cells migrating in the presence of a chemoattractant. Inhibition of chemotaxis by test compounds was expressed as percent inhibition relative to uninhibited control.

IC50 [1] [nM]	IC50 [2] [nM]	Structure (SMILES)
2.1	25	CCCc1c(OCCCOc2ccc(C(=O)NC)c(OC)c2CC2CC2)ccc2c1OC(CCC(=O)NS(=O)(=O)c1ccccc1)CC2 (stereo not drawn) [Example 5]
3.7	30	CCCc1c(OCCCOc2ccc(C(=O)NC)c(OC)c2CC2CC2)ccc2c1OC(CCC(=O)NS(=O)(=O)c1ccc(C)cc1)CC2 (stereo not drawn) [Example 6]
3	23	CCCc1c(OCCCOc2ccc(C(=O)NC)c(OC)c2CC2CC2)ccc2c1OC(CCC(=O)NS(=O)(=O)c1ccccc1C)CC2 (stereo not drawn) [Example 7]
